Ten compounds from ChEMBL document CHEMBL3797123, “Amino(oxo)acetate moiety: A new functional group to improve the cytotoxicity of betulin derived carbamates” (Bioorg Med Chem Lett, 2016) can be followed below.

Format in all cases: functional, cell-based
One test deals with MCF7. Kind of test: Cytotoxicity against human MCF7 cells after 96 hrs by SRB assay. As to conditions: MCF7, 96 h.
Another test has as its system HT-29. The experiment in a line: Cytotoxicity against human HT-29 cells after 96 hrs by SRB assay. As to conditions: HT-29, 96 h.
The next test relates to A2780. Kind of test: Cytotoxicity against human A2780 cells after 96 hrs by SRB assay. As to conditions: A2780, 96 h.
The subject of the next test is A549. Kind of test: Cytotoxicity against human A549 cells after 96 hrs by SRB assay. As to conditions: A549, 96 h.
Test [1] is described as follows: Cytotoxicity against human 518A2 cells after 96 hrs by SRB assay. As to conditions: 518A2, 96 h.
The subject of a further test is HeLa. The experiment in a line: Cytotoxicity against human HeLa cells after 96 hrs by SRB assay.

For `C=C(C)[C@@H]1CC[C@]2(CO)CC[C@]3(C)[C@H](CC[C@@H]4[C@@]5(C)CC[C@H](OC(C)=O)C(C)(C)[C@@H]5CC[C@]43C)[C@@H]12`, the EC50 in the test on MCF7 is 20.2 µM; with HT-29, > 30 µM; in the test with A2780 it was 28.5 µM; with A549, > 30 µM; in test [1] it was > 30 µM; with HeLa, > 30 µM.
Take `C=C(C)[C@@H]1CC[C@]2(COC(=O)NCCCCCC)CC[C@]3(C)[C@H](CC[C@@H]4[C@@]5(C)CC[C@H](O)C(C)(C)[C@@H]5CC[C@]43C)[C@@H]12`: the EC50 stood at 7.6 µM in the test with A2780 and 5.6 µM in test [1].
On to `C=C(C)[C@@H]1CC[C@]2(COC(=O)NCC)CC[C@]3(C)[C@H](CC[C@@H]4[C@@]5(C)CC[C@H](OC(=O)C(N)=O)C(C)(C)[C@@H]5CC[C@]43C)[C@@H]12`, for which the EC50 in the test on MCF7 was found to be 11.2 µM; in the test on HT-29, 15.3 µM; with A2780, 10 µM; in the test with A549, 13.7 µM; in test [1], 11.4 µM; with HeLa, 14.1 µM.
As for `C=C(C)[C@@H]1CC[C@]2(COC(=O)NCCCC)CC[C@]3(C)[C@H](CC[C@@H]4[C@@]5(C)CC[C@H](OC(=O)C(N)=O)C(C)(C)[C@@H]5CC[C@]43C)[C@@H]12`, the EC50 in the test with MCF7 came out at 10 µM; in the test on HT-29, 10.1 µM; with A2780, 6.4 µM; with A549, 9.1 µM; in test [1], 7.9 µM; in the test on HeLa, 11.2 µM.
For the compound `C=C(C)[C@@H]1CC[C@]2(COC(=O)NCCCCCC)CC[C@]3(C)[C@H](CC[C@@H]4[C@@]5(C)CC[C@H](OC(=O)C(N)=O)C(C)(C)[C@@H]5CC[C@]43C)[C@@H]12`, the EC50 in the test with MCF7 was 5.6 µM; with HT-29 it was 7.3 µM; with A2780, 2 µM; with A549, 7.4 µM; in test [1], 6.5 µM; with HeLa, 10.1 µM.
Consider `C=C(C)[C@@H]1CC[C@]2(COC(=O)NCCC)CC[C@]3(C)[C@H](CC[C@@H]4[C@@]5(C)CC[C@H](OC(=O)C(N)=O)C(C)(C)[C@@H]5CC[C@]43C)[C@@H]12`, for which the EC50 was 12.5 µM in the test on MCF7; 12.8 µM in the test with HT-29; 7 µM in the test with A2780; 10.5 µM in the test with A549; 9.9 µM in test [1]; 12.8 µM in the test with HeLa.
Consider `C=C(C)[C@@H]1CC[C@]2(COC(=O)Nc3ccccc3)CC[C@]3(C)[C@H](CC[C@@H]4[C@@]5(C)CC[C@H](OC(=O)C(N)=O)C(C)(C)[C@@H]5CC[C@]43C)[C@@H]12`, for which the concentration giving a half-maximal response (EC50) in the test with MCF7 stood at 17.6 µM; with HT-29, 21.4 µM; with A2780, 17.3 µM; with A549 it was 20.4 µM; in test [1], 15.3 µM; in the test on HeLa, 10.5 µM.
Regarding `C=C(C)[C@@H]1CC[C@]2(COC(C)=O)CC[C@]3(C)[C@H](CC[C@@H]4[C@@]5(C)CC[C@H](OC(C)=O)C(C)(C)[C@@H]5CC[C@]43C)[C@@H]12` [BETULIN DIACETATE], the EC50 in the test on HT-29 was 25.7 µM; with A2780 it was 20.3 µM; with A549, 21.5 µM; in the test on HeLa it was > 30 µM.
As for `C=C(C)[C@@H]1CC[C@]2(C(=O)O)CC[C@]3(C)[C@H](CC[C@@H]4[C@@]5(C)CC[C@H](O)C(C)(C)[C@@H]5CC[C@]43C)[C@@H]12` [BETULINIC ACID], in the test with HeLa, the EC50 came to 8.8 µM.
Turning to `C=C(C)[C@@H]1CC[C@]2(CO)CC[C@]3(C)[C@H](CC[C@@H]4[C@@]5(C)CC[C@H](O)C(C)(C)[C@@H]5CC[C@]43C)[C@@H]12` [BETULIN], the EC50 in the test with HT-29 and with HeLa was > 30 µM throughout.
